From publication PMC12808100, “The non-catalytic DNA polymerase ε subunit is an NPF motif recognition protein” (Nature Communications, 2025) come the findings set out here.

In the first experiment the test system is POLE. In words: Titration nHU, Western blot, endogenous POLE in Jurkat extract. To be noted: titration nHU with peptide bait, Western blot; listed as CLSPN. Format: binding, human. The source says:
To identify the partners of NPF motifs, we used the native holdup (nHU) assay that was recently developed by our team (Fig. 1B). The holdup approach has been extensively used to determine equilibrium dissociation constants of transient interactions mediated by PDZ and SH3 domains, 14-3-3, and human papilloma virus E6 proteins, and even nucleic acid-protein interactions[7],[30]–[35]. In the nHU experiments, a purified bait molecule, or a control compound, is immobilized on a resin at high concentration (typically 10 μM, or higher) and these resin stocks are subsequently mixed with dilute cell extracts. After a relatively long incubation, i.e., 2 h at 4 °C, the liquid phase is separated by centrifugation. This liquid phase contains the unbound prey molecules at near binding equilibrium that can be quantified using selective and quantitative analytical approaches, such as mass spectrometry. Therefore, proteins that interact with the bait molecule will appear to be depleted in the solvent phase and by measuring its relative concentration compared to the control nHU experiment, the degree of binding (θ) can be determined that can be converted to apparent steady-state dissociation constants, according to:1 θ=1−Ifree/Itot=Cbait/Cbait+Kapp where Itot and Ifree are the measured total and bait-depleted equilibrium mass spectrometry total ion intensities of prey proteins, Cbait is the bait molecule concentration and Kapp is the apparent dissociation constant.
Jurkat E6.1 cells (ECACC #88042803, RRID: CVCL_0367) were grown in RPMI (Gibco) medium completed with 10% FBS (Gibco BRL) and 40 μg/ml gentamicin (Gibco/Life Technology). To prepare total cell extracts, Jurkat cells were seeded onto T-175 flasks and grew until 3 × 10^6 cells/ml confluency. Cells were collected by 1000 g x 5 min centrifugation, washed with PBS and then lysed in ice-cold lysis buffer (Hepes-KOH pH 7.5 50 mM, NaCl 150 mM, Triton X-100 1%, cOmplete EDTA-free protease inhibitor cocktail 5x, TCEP 5 mM, glycerol 10%).
Cell suspensions were sonicated 4×20 sec with 1 sec long pulse on ice, then incubated rotating at 4 °C for 30 min. The lysates were centrifuged at 12,000 rpm 4 °C for 20 min and supernatant was kept. Total protein concentration was measured by standard Bradford method (Bio-Rad Protein Assay Dye Reagent #5000006) using a BSA calibration curve (MP Biomedicals #160069, diluted in lysis buffer) on a Bio-Rad SmartSpec 3000 spectrophotometer instrument.
Titration holdup experiments were carried out as described above using 25 μl saturated resins prepared. Briefly, we mixed control, or bait-saturated resins at various proportions by keeping the total resin amount and resin-analyte ratio constant during the experiment (for 25 μl we used 100 μl cell extract as analyte). In titration experiments with protein baits, bait concentration was determined as described above for the saturated resin stocks. Experiments were carried out at 4 °C for 2 h and recovered supernatants were subjected to western blot or dot blot analysis.
For Western blot, samples were mixed with 4x Laemmli Sample Buffer in 3:1 ratio. Equal amounts of samples were loaded on 6-10% acrylamide-gels (generally 16 μg). Transfer was done into PVDF membranes using a Trans-Blot Turbo Transfer System and Trans-Blot Turbo RTA Transfer Kit (BioRad, #1704275). For Dot blot, nHU samples were directly loaded on Nitrocellulose membranes using 48 Sample vacuum manifold (Cleaver Scientific) following the manufacturer’s recommendations.
After 1 h of blocking in 5% milk, membranes were incubated overnight at 4 °C with primary antibodies in 5% milk-TBS-Tween.
With “SRPMVIQESKSLLRNPFEAIRPGS [CLSPN 1223-1246, biotinylated NPF motif peptide of Claspin]”, the “binding to endogenous POLE” value is listed as “unable to bind to endogenous POLE”.

Still in this experiment, the particulars now being: titration nHU with peptide bait, Western blot; listed as Claspin.
For the substance “SRPMVIQESKSLLRNPFEAIRPGS [CLSPN 1223-1246, biotinylated NPF motif peptide of Claspin]”, the “binding to endogenous POLE” value is given as “could not interact with POLE”.

The experiment is the same for the next values; noted with them: titration nHU with peptide bait, Western blot; listed as NPF motif of ERCC6L.
For “RRIVSDGEDEDDSFKDTSSINPFNTSLFQFSSVKQFDAS [ERCC6L 1024-1062, biotinylated NPF motif peptide of ERCC6L]”, the “binding to endogenous POLE” value was “No apparent binding”.

Another experiment deals with His6-avi-MBP-tagged POLE2. In words: Single-point nHU-MS with recombinant His6-avi-MBP-POLE2 bait, Jurkat extract. The settings on record: bait av-His6-MBP-tagged full-length POLE2; MS6_Varjosalo. Format: binding, human. The source says:
So far, our study only focused on a few hand-picked NPF motifs and studied them as short synthetic peptides. However, many other proteins may be present in the proteome that could bind to POLE2 and their putative NPF motifs are embedded in their natural structures that can greatly affect their binding properties. To investigate interactions between POLE2 and intact, full length proteins proteome-wide, we used nHU-MS experiments with recombinant His6-avi-MBP-tagged POLE2 as bait and purified His6-avi-MBP as a control. Even though we are aware that this recombinant POLE2 may bind to NPF motifs with a somewhat altered affinity, we assumed that this would affect all NPF motif-mediated interactions equally, allowing an unbiased affinity ranking of all identified partners. Single point nHU measurements were performed at 26 μM POLE2 concentration and the recovered supernatant was measured by label free proteomic MS measurements (Fig. 3A, Supplementary Figs. 8A, 9, Supplementary Data 1).
Single-point nHU experiments with protein baits were carried out nearly identically with two key modifications. First, the resin saturation step was carried out by mixing 50 μl streptavidin resin with 0.5−1 ml 50 μM biotinylated protein solution and the mixture was incubated for 1.5 h at 4 °C with constant agitation. Second, instead of using estimated bait concentrations, we measured it experimentally. An extra aliquot of resin stock was prepared alongside the nHU samples that were identically processed that were used to eluate the immobilized proteins under harsh conditions, in order to experimentally quantify the Cbait by using densitometry of Coomassie stained SDS-PAGE that included a protein calibration series. For this, 50 μl bait-saturated resin aliquots were mixed with 200 μl 4x Laemmli Sample Buffer (120 mM Tris-HCl pH 7, 8% SDS, 100 mM DTT, 32% glycerol, 0.004% bromphenol blue, 1% β-mercaptoethanol), instead of cell extract. After 15 min incubation at 95 °C, these samples were analyzed by SDS-PAGE using protein calibration standard, made from recombinant MBP. Densitometry was carried out after Coomassie staining on raw Tif images by using Fiji ImageJ 1.53c and experimental bait concentration were determined by adjusting for molecular weight differences between MBP and MBP-POLE2 constructs.
Samples were digested overnight at 37 °C.
Turning to “DEGFK [ACACA, endogenous full length prey protein]”, the BI is 0.2013, the log2FC is listed as -0.3242 and the pKapp stood at 3.986.

Turning to “PSASG [NUP214, endogenous full length prey protein]”, the BI was determined as 0.2012, the log2FC was -0.3242 and the pKapp worked out at 3.986.

Take “PSTST [UBR5, endogenous full length prey protein]”: the BI came to 0.2095, the log2FC is -0.3392 and the pKapp is given as 4.008.

Take “PYCR1: endogenous full length prey protein”: the log2FC is on record as -0.3412.

The experiment is the same for the next values; noted with them: non-zero for significant partners; MS6_Varjosalo.
As to “DEGFK [ACACA, endogenous full length prey protein]”, the pKapp_sign was determined as 3.986.

For “PSASG [NUP214, endogenous full length prey protein]”, the pKapp_sign is recorded as 3.986.

Consider “PSTST [UBR5, endogenous full length prey protein]”, for which the pKapp_sign turned out to be 4.008.

The same experiment, now with this note: significant apparent affinity of endogenous prey protein for POLE2 bait; single-point nHU-MS; Figure S11.
Consider AGL, for which the pKapp_sign stood at 4.38.

Regarding ARLRH [AKNA], the pKapp_sign is 4.257.

Consider ASVD [CPSF4], for which the pKapp_sign is listed as 4.068.

On to CRIPT, for which the pKapp_sign is listed as 4.909.

“DEGFK [ACACA, endogenous full length prey protein]”: the pKapp_sign was determined as 3.986.

Consider KDDY [DNAJC10], for which the pKapp_sign stood at 4.21.

With KPKKPLTSSS [MAPRE1], the pKapp_sign worked out at 4.964.

Regarding KPTSTYSLSS [VIPAS39], the pKapp_sign was 4.13.

Take LSVD [LEF1]: the pKapp_sign was 4.471.

MIOS: the pKapp_sign is 4.5333.

Regarding “NPFA [WDR59, endogenous full length prey protein]”, the pKapp_sign is on record as 4.457.

For the substance “NPFI [DNAJA3, endogenous full length prey protein]”, the pKapp_sign is reported as 4.13.

For “NPFK [CCDC134, endogenous full length prey protein]”, the pKapp_sign is recorded as 4.219.

For the substance “NPFQ [MAPK1IP1L, endogenous full length prey protein]”, the pKapp_sign was 4.047.

“NPFQ [SSBP2, endogenous full length prey protein]”: the pKapp_sign turned out to be 4.583.

Consider “NPFT [NOSIP, endogenous full length prey protein]”, for which the pKapp_sign came out at 4.058.

For “NSVD [PLEKHA5, endogenous full length prey protein]”, the pKapp_sign was determined as 4.548.

Regarding PAAST [NUP58], the pKapp_sign stood at 4.1.

For PPSSKVSSHS [CNTRL], the pKapp_sign worked out at 4.363.

On to “PSASG [NUP214, endogenous full length prey protein]”, for which the pKapp_sign came out at 3.986.

Regarding PSASM [RFWD3], the pKapp_sign came to 4.618.

Take PSASR [NUP188]: the pKapp_sign was determined as 4.034.

Turning to “PSASS [ERCC6L, endogenous full length prey protein]”, the pKapp_sign is 4.421.

Take “PSASS [TTF2, endogenous full length prey protein]”: the pKapp_sign worked out at 4.771.

As to “PSAST [EPN2, endogenous full length prey protein]”, the pKapp_sign is 4.531.

With PSPST [EXO1], the pKapp_sign worked out at 4.499.

Take PSSST [GIGYF2]: the pKapp_sign is 4.1436.

“PSTST [UBR5, endogenous full length prey protein]”: the pKapp_sign is recorded as 4.008.

Regarding PSVST [ZMYM1], the pKapp_sign came out at 4.45.

In the case of “PVGGND [USP9X, endogenous full length prey protein]”, the pKapp_sign was determined as 4.835.

For PVLGNI [SSBP3], the pKapp_sign is 4.288.

As to “PYCR1: endogenous full length prey protein”, the pKapp_sign was found to be 4.011.

Take QDLGNI [CTSA]: the pKapp_sign stood at 4.815.

As for QPLRH [OIP5], the pKapp_sign worked out at 4.225.

For RARA [INKA1], the pKapp_sign stood at 5.687.

Regarding RHRA [FIP1L1], the pKapp_sign is 4.277.

Turning to RSRSVS [ZNRF1], the pKapp_sign came out at 4.487.

In the case of RSVD [PLEKHA7], the pKapp_sign was 4.312.

Consider SLGEI [GYG1], for which the pKapp_sign was 4.703.

For SLRED [INPP5K], the pKapp_sign is 4.539.

With SSNSQ [PNPT1], the pKapp_sign stood at 4.014.

As to SSQSY [EIF4E2], the pKapp_sign is 4.429.

With TNSTSD [PIKFYVE], the pKapp_sign came to 4.132.

For the substance TRIM25, the pKapp_sign came to 4.096.

With TRIM27, the pKapp_sign was 4.707.

In the case of “TSPTSD [NUMB, endogenous full length prey protein]”, the pKapp_sign is reported as 4.316.

Take TTAATSV [SEC23IP]: the pKapp_sign was determined as 4.243.
